Measurements published in PubChem BioAssay (NCI).
Values joined by “and” are separate entries in the source; they are usually repeats but may differ in a detail not shown here. Equal values may be shown once.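 In this assay, cells in 96-well plates receive the compound at five concentrations for 48 hours. Endpoints are linearly interpolated between the surrounding concentrations. At the GI50, growth is halved. TGI is the concentration that stops growth completely.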

Tests used:
Assay in all cases: NCI anticancer screen, dose series, 48 h
[1] = test system: KM12 colon
[2] = test system: NCI-H226 lung
[3] = test system: SW-620 colon
[4] = test system: DU-145 prostate
[5] = test system: M14 melanoma
[6] = test system: SK-MEL-28 melanoma
[7] = test system: HL-60(TB) leukemia
[8] = test system: RPMI-8226 leukemia
[9] = test system: UO-31 renal
[10] = test system: HCC-2998 colon

SMILES | TGI [1] | TGI [2] | TGI [3] | TGI [4] | TGI [5] | TGI [6] | TGI [7] | TGI [8] | TGI [9] | TGI [10] | GI50 [1] | GI50 [2] | GI50 [3] | GI50 [4] | GI50 [5] | GI50 [6] | GI50 [7] | GI50 [8] | GI50 [9] | GI50 [10]
C[C@]12CC[C@H]3[C@@H](CCC4=C[C@@H](OC5OCC(OC6OC(CO)C(O)C(O)C6O)C(O)C5O)CC[C@@]43C=O)[C@@]1(O)CCC2C1=CC(=O)OC1 (some centres not stated) | 13.9 µM | 5.79 µM | 9.23 µM | 1.44 µM | 2.79 µM | 9.62 µM | 0.646 µM | 2.75 µM | 3.45 µM | 1.38 µM |  |  |  |  |  |  |  |  |  | 
CC[C@H](C)[C@H](NC(=O)c1nccn1C)C(=O)N(C)[C@H](C[C@@H](OC(C)=O)c1nc(C(=O)N[C@@H](Cc2ccccc2)C[C@H](C)C(=O)OC)cs1)C(C)C | > 33.3 µM | > 33.3 µM | > 33.3 µM | > 33.3 µM | 1.6 µM | > 33.3 µM | 1.78 µM | 12.1 µM | > 33.3 µM | > 33.3 µM | 0.553 µM | 8.51 µM | 1.33 µM | 1.3 µM | 0.557 µM | 5.05 µM | 0.642 µM | 0.531 µM | 2.9 µM | 1.08 µM
COc1cc(N=Nc2cccc(S(N)(=O)=O)c2)c2ccccc2c1N | 26.4 µM | 39.7 µM | > 95.3 µM | 3.43 µM | 3.43 µM | 19.9 µM | 23.6 µM | 57.3 µM | 30.6 µM | 20.7 µM |  |  |  |  |  |  |  |  |  | 
Cc1[nH]n(-c2ccccc2)c(=O)c1C(=O)c1ccccc1 | > 25 µM | > 25 µM | > 25 µM | > 25 µM | > 25 µM | > 25 µM | > 25 µM | > 25 µM | > 25 µM | > 25 µM | 11.7 µM | > 25 µM | > 25 µM | > 25 µM | > 25 µM | > 25 µM | > 25 µM | > 25 µM | > 25 µM | > 25 µM
N#Cc1ncc(N2C(=O)C3(CCC3)N(c3ccc(OC4CCNCC4)nc3)C2=S)cc1C(F)(F)F | 37 µM | 34 µM | 29.5 µM | 41.1 µM | 20.6 µM | 27.4 µM | 33.9 µM | 32 µM | 23.3 µM | 31.2 µM | 18.5 µM | 15.7 µM | 14.7 µM | 18.8 µM | 7.31 µM | 13.8 µM | 12.1 µM | 11.5 µM | 11 µM | 15.6 µM
N#CC1CCc2c(c(-c3cn[nH]c3C(F)(F)F)nc3c(F)cc4[nH]ncc4c23)C1 (configuration not stated) | 41.9 µM | > 100 µM | 38 µM | 80.3 µM | 21.7 µM | 30.4 µM | 16.9 µM | 78.1 µM | 36.6 µM | 28.1 µM | 3.34 µM | 16 µM | 3.47 µM | 9.06 µM | 3.88 µM | 4.43 µM | 2.56 µM | 8.4 µM | 9.64 µM | 11 µM
C[C@H]1CCC/C=C/[C@@H]2C[C@H](O)C[C@H]2[C@H](O)[C@@H](SC2OC(CO)C(O)C(O)C2O)CC(=O)O1 (some centres not stated) | 68 µM | > 100 µM | > 100 µM | > 100 µM | > 100 µM | > 100 µM | > 100 µM | > 100 µM | > 100 µM | > 100 µM | 30.3 µM | 36.2 µM | > 100 µM | > 100 µM | 61.3 µM | 74.3 µM | > 100 µM | > 100 µM | 47.9 µM | > 100 µM
C[C@H]1CC2=CC(=O)CC[C@]2(C)[C@H]2CC[C@@]3(C)[C@@H](CC[C@]3(C)O)[C@H]12 | > 75.4 µM | > 100 µM | > 100 µM | > 96.3 µM | > 78.9 µM | > 85.2 µM | 36.8 µM | 38 µM | > 78.5 µM | > 100 µM | 27.5 µM | 30 µM | 35.8 µM | 45.7 µM | 27.2 µM | 29.3 µM | 12.9 µM | 7.58 µM | 20.6 µM | 43.8 µM
CN(C)c1ccc(N=C(C#N)c2nc(N)nc(N3CCN(c4ccccc4)CC3)n2)cc1 | > 50 µM | > 50 µM | > 50 µM | > 28.1 µM | > 50 µM | > 50 µM | > 50 µM | > 50 µM | > 32.5 µM | > 50 µM | 49.6 µM | 22.3 µM | 22.1 µM | 11.6 µM | > 50 µM | 12.7 µM | > 50 µM | > 26.8 µM | > 18 µM | 26.6 µM
O=[N+]([O-])c1ccc(NC(=S)N/N=C(\c2ccccc2)c2ccccn2)cc1 | 3.35 µM and 4.12 µM | 2.98 µM and 3.03 µM | 1.93 µM and 2.35 µM | 2.84 µM and 4.03 µM | 2.33 µM and 2.77 µM | 2.9 µM and 2.69 µM | 4.32 µM and > 20.4 µM | 5.6 µM and > 27 µM | 2.79 µM | 4.26 µM and 2.83 µM |  |  | 0.0303 µM |  | 1.38 µM | 1.38 µM | 1.59 µM | 1.2 µM |  | 2.1 µM
COc1cc(CNC(=O)CCSc2nc3ccccc3c(=O)n2Cc2cc(OC)c(OC)c(OC)c2)cc(OC)c1OC | > 100 µM | > 100 µM | > 100 µM | > 100 µM | 5.8 µM | > 100 µM | > 100 µM | 67.2 µM | > 100 µM | 94.6 µM | 3.98 µM | 14.6 µM | 4.31 µM | 7.27 µM | 2.23 µM | 6.69 µM | 3.57 µM | 4 µM | 5.9 µM | 13 µM
O=c1oc2cc(OS(=O)(=O)c3ccccc3)ccc2c2c1CCCCC2 |  | > 100 µM | > 100 µM | > 100 µM | > 100 µM | > 100 µM | 8.54 µM | > 100 µM | > 100 µM | > 100 µM |  | > 100 µM | 4.89 µM | > 100 µM | 8.8 µM | > 100 µM | 2.05 µM | 3.58 µM | 8 µM | 32.1 µM
Cc1ccc(/C=C2\CN(Cc3cn(CCNc4ccnc5cc(Cl)ccc45)nn3)C/C(=C\c3ccc(C)cc3)C2=O)cc1 | 3.28 µM | 4.8 µM |  | 3.17 µM | 4.62 µM | 3.26 µM | 5.26 µM | 4.98 µM | 2.85 µM | 3.44 µM | 1.65 µM | 2.03 µM |  | 1.76 µM | 2.2 µM | 1.74 µM | 2.23 µM | 1.82 µM | 1.44 µM | 1.92 µM
